Experimental data: the supplement of paper PMC13207355
Where a name gives a salt, the structure may show the parent alone.

Experiments:
Conditions in all cases: exposure time: 72 h
E34 [1] = patient-derived glioblastoma stem cells of proneural subtype; test: phenotypic distance (Euclidean, principal components) from DMSO controls (arbitrary units); higher = stronger morphological change
E13 [2] = patient-derived glioblastoma stem cells of classical subtype; test: as above
E21 [3] = patient-derived glioblastoma stem cells of mesenchymal subtype; test: as above
FT3469 [4] = normal neural stem cell line; test: as above
E28 [5] = patient-derived glioblastoma stem cells of classical subtype; test: as above
E57 [6] = patient-derived glioblastoma stem cells of mesenchymal subtype; test: as above
E31 [7] = patient-derived glioblastoma stem cells of proneural subtype; test: as above
E34 [8] = test: surviving fraction (nuclei count normalised to DMSO); higher = more cells surviving (less toxic)
E13 [9] = test: as above
E21 [10] = test: as above
FT3469 [11] = test: as above
E28 [12] = test: as above
E57 [13] = test: as above
E31 [14] = test: as above
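Throughout, for phenotypic distance (Euclidean, principal components) from DMSO controls: cell Painting imaging in 384-well plates, CellProfiler features reduced to at least 20 principal components, Euclidean distance versus same-plate DMSO vehicle wells (0.1% v/v), median over six images per well.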
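Throughout, for surviving fraction (nuclei count normalised to DMSO): nuclei counted by high-content imaging of Hoechst-stained cells in laminin-coated 384-well plates, relative to 0.1% DMSO vehicle wells, with staurosporine as cell-death control.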

CC(C)NCC(O)c1ccc(O)c(O)c1 (stereo unspecified) [Isoproterenol hydrochloride]
Conditions	phenotypic distance	surviving fraction
E13 [2], 4.1 nM	1.71	–
E13 [2], 12.3 nM	1.34	–
E13 [2], 37 nM	1.11	–
E13 [2], 111.1 nM	0.927	–
E13 [2], 333.3 nM	0.863	–
E13 [2], 1000 nM	0.656	–
E13 [2], 3000 nM	0.895	–
E13 [9], 4.1 nM	–	0.935
E13 [9], 12.3 nM	–	0.961
E13 [9], 37 nM	–	1.01
E13 [9], 111.1 nM	–	0.949
E13 [9], 333.3 nM	–	0.974
E13 [9], 1000 nM	–	0.842
E13 [9], 3000 nM	–	1
E21 [3], 4.1 nM	1.03	–
E21 [3], 12.3 nM	0.961	–
E21 [3], 37 nM	0.559	–
E21 [3], 111.1 nM	0.37	–
E21 [3], 333.3 nM	0.707	–
E21 [3], 1000 nM	0.442	–
E21 [3], 3000 nM	0.786	–
E21 [10], 4.1 nM	–	0.983
E21 [10], 12.3 nM	–	0.836
E21 [10], 37 nM	–	0.946
E21 [10], 111.1 nM	–	0.954
E21 [10], 333.3 nM	–	0.957
E21 [10], 1000 nM	–	1.03
E21 [10], 3000 nM	–	0.989
E28 [5], 4.1 nM	1.26	–
E28 [5], 12.3 nM	0.749	–
E28 [5], 37 nM	0.577	–
E28 [5], 111.1 nM	0.661	–
E28 [5], 333.3 nM	0.903	–
E28 [5], 1000 nM	0.652	–
E28 [5], 3000 nM	0.87	–
E28 [12], 4.1 nM	–	1.14
E28 [12], 12.3 nM	–	1.19
E28 [12], 37 nM	–	1.05
E28 [12], 111.1 nM	–	1.09
E28 [12], 333.3 nM	–	1.17
E28 [12], 1000 nM	–	1.1
E28 [12], 3000 nM	–	1.22
E31 [7], 4.1 nM	3.31	–
E31 [7], 12.3 nM	0.604	–
E31 [7], 37 nM	0.63	–
E31 [7], 111.1 nM	0.645	–
E31 [7], 333.3 nM	0.706	–
E31 [7], 1000 nM	0.745	–
E31 [7], 3000 nM	0.88	–
E31 [14], 4.1 nM	–	0.999
E31 [14], 12.3 nM	–	1.05
E31 [14], 37 nM	–	0.967
E31 [14], 111.1 nM	–	0.989
E31 [14], 333.3 nM	–	1.02
E31 [14], 1000 nM	–	1.27
E31 [14], 3000 nM	–	1.24
E34 [1], 4.1 nM	0.806	–
E34 [1], 12.3 nM	0.933	–
E34 [1], 37 nM	0.861	–
E34 [1], 111.1 nM	0.633	–
E34 [1], 333.3 nM	0.9	–
E34 [1], 1000 nM	0.781	–
E34 [1], 3000 nM	0.963	–
E34 [8], 4.1 nM	–	1.03
E34 [8], 12.3 nM	–	1
E34 [8], 37 nM	–	1.13
E34 [8], 111.1 nM	–	1.09
E34 [8], 333.3 nM	–	1.15
E34 [8], 1000 nM	–	1.11
E34 [8], 3000 nM	–	1.11
E57 [6], 4.1 nM	0.878	–
E57 [6], 12.3 nM	0.696	–
E57 [6], 37 nM	0.871	–
E57 [6], 111.1 nM	1.09	–
E57 [6], 333.3 nM	1.1	–
E57 [6], 1000 nM	3.04	–
E57 [6], 3000 nM	1.28	–
E57 [13], 4.1 nM	–	1.01
E57 [13], 12.3 nM	–	0.941
E57 [13], 37 nM	–	0.999
E57 [13], 111.1 nM	–	0.974
E57 [13], 333.3 nM	–	1.12
E57 [13], 1000 nM	–	1.14
E57 [13], 3000 nM	–	1.11
FT3469 [4], 4.1 nM	1.05	–
FT3469 [4], 12.3 nM	0.977	–
FT3469 [4], 37 nM	1.54	–
FT3469 [4], 111.1 nM	0.756	–
FT3469 [4], 333.3 nM	1.08	–
FT3469 [4], 1000 nM	0.765	–
FT3469 [4], 3000 nM	1.18	–
FT3469 [11], 4.1 nM	–	0.975
FT3469 [11], 12.3 nM	–	1.04
FT3469 [11], 37 nM	–	0.928
FT3469 [11], 111.1 nM	–	1.15
FT3469 [11], 333.3 nM	–	1.18
FT3469 [11], 1000 nM	–	1.04
FT3469 [11], 3000 nM	–	1.1

CCC(C)n1ncn(-c2ccc(N3CCN(c4ccc(OCC5COC(Cn6cncn6)(c6ccc(Cl)cc6Cl)O5)cc4)CC3)cc2)c1=O (stereo unspecified) [Itraconazole]
Conditions	phenotypic distance	surviving fraction
E13 [2], 4.1 nM	0.693	–
E13 [2], 12.3 nM	0.503	–
E13 [2], 37 nM	1.03	–
E13 [2], 111.1 nM	0.709	–
E13 [2], 333.3 nM	0.981	–
E13 [2], 1000 nM	2.73	–
E13 [2], 3000 nM	4.62	–
E13 [9], 4.1 nM	–	0.869
E13 [9], 12.3 nM	–	1.07
E13 [9], 37 nM	–	0.889
E13 [9], 111.1 nM	–	1.02
E13 [9], 333.3 nM	–	0.966
E13 [9], 1000 nM	–	0.801
E13 [9], 3000 nM	–	0.653
E21 [3], 4.1 nM	0.987	–
E21 [3], 12.3 nM	0.508	–
E21 [3], 37 nM	0.932	–
E21 [3], 111.1 nM	0.917	–
E21 [3], 333.3 nM	0.975	–
E21 [3], 1000 nM	3.76	–
E21 [3], 3000 nM	7.08	–
E21 [10], 4.1 nM	–	1.03
E21 [10], 12.3 nM	–	1.02
E21 [10], 37 nM	–	1.01
E21 [10], 111.1 nM	–	0.979
E21 [10], 333.3 nM	–	1.05
E21 [10], 1000 nM	–	0.79
E21 [10], 3000 nM	–	0.532
E28 [5], 4.1 nM	0.725	–
E28 [5], 12.3 nM	0.689	–
E28 [5], 37 nM	0.685	–
E28 [5], 111.1 nM	0.54	–
E28 [5], 333.3 nM	0.778	–
E28 [5], 1000 nM	1.01	–
E28 [5], 3000 nM	1.89	–
E28 [12], 4.1 nM	–	1.1
E28 [12], 12.3 nM	–	1.07
E28 [12], 37 nM	–	1.18
E28 [12], 111.1 nM	–	0.888
E28 [12], 333.3 nM	–	1.07
E28 [12], 1000 nM	–	0.897
E28 [12], 3000 nM	–	0.735
E31 [7], 4.1 nM	0.564	–
E31 [7], 12.3 nM	0.769	–
E31 [7], 37 nM	0.273	–
E31 [7], 111.1 nM	0.748	–
E31 [7], 333.3 nM	0.758	–
E31 [7], 1000 nM	1.32	–
E31 [7], 3000 nM	5	–
E31 [14], 4.1 nM	–	1.13
E31 [14], 12.3 nM	–	1.12
E31 [14], 37 nM	–	1.1
E31 [14], 111.1 nM	–	1.03
E31 [14], 333.3 nM	–	1.08
E31 [14], 1000 nM	–	1.09
E31 [14], 3000 nM	–	0.996
E34 [1], 4.1 nM	0.775	–
E34 [1], 12.3 nM	0.644	–
E34 [1], 37 nM	0.488	–
E34 [1], 111.1 nM	0.692	–
E34 [1], 333.3 nM	0.901	–
E34 [1], 1000 nM	1.17	–
E34 [1], 3000 nM	4	–
E34 [8], 4.1 nM	–	0.814
E34 [8], 12.3 nM	–	0.933
E34 [8], 37 nM	–	0.922
E34 [8], 111.1 nM	–	1.02
E34 [8], 333.3 nM	–	1.04
E34 [8], 1000 nM	–	0.831
E34 [8], 3000 nM	–	0.701
E57 [6], 4.1 nM	0.542	–
E57 [6], 12.3 nM	0.297	–
E57 [6], 37 nM	0.803	–
E57 [6], 111.1 nM	0.874	–
E57 [6], 333.3 nM	0.482	–
E57 [6], 1000 nM	2.51	–
E57 [6], 3000 nM	6.42	–
E57 [13], 4.1 nM	–	1.05
E57 [13], 12.3 nM	–	1.03
E57 [13], 37 nM	–	1.02
E57 [13], 111.1 nM	–	1.08
E57 [13], 333.3 nM	–	1.07
E57 [13], 1000 nM	–	0.999
E57 [13], 3000 nM	–	0.558
FT3469 [4], 4.1 nM	0.966	–
FT3469 [4], 12.3 nM	0.554	–
FT3469 [4], 37 nM	1.33	–
FT3469 [4], 111.1 nM	3.66	–
FT3469 [4], 333.3 nM	0.753	–
FT3469 [4], 1000 nM	1.14	–
FT3469 [4], 3000 nM	3.43	–
FT3469 [11], 4.1 nM	–	0.763
FT3469 [11], 12.3 nM	–	1.05
FT3469 [11], 37 nM	–	1.03
FT3469 [11], 111.1 nM	–	1.06
FT3469 [11], 333.3 nM	–	0.993
FT3469 [11], 1000 nM	–	0.895
FT3469 [11], 3000 nM	–	0.53
